{
  "source": "patent US11833157B2",
  "about": "“Precipitation resistant small molecule drug formulations” (Xeris Pharmaceuticals, Inc., priority 2017, dated 2023)",
  "origin": "cited, not measured here",
  "tested_on": "febrile seizures",
  "conditions": "short term diazepam prophylaxis at times of fever; 39% without",
  "data": [
    {"smiles": "CN1C(=O)CN=C(c2ccccc2)c2cc(Cl)ccc21", "note": "[diazepam]", "values": [
      {"measurement": "18 month recurrence rate", "result": 12, "unit": "%"}
    ]}
  ]
}
